Common to all, as to format: in vivo, mouse
Assay [1] relates to LLC murine lung tumor cells. The assay is described as follows: LLC tumor growth and treatment in mice. As for the experimental part:
Tumor growth and treatment. A total of 5×10^5 MC38, 5×10^5 CT26 or 1×10^6 LLC cells were inoculated subcutaneously into right dorsal flanks of the mice in 100 μL phosphate buffered saline (PBS). Tumor-bearing mice were randomly grouped into treatment groups when tumors grew to around 100 mm^3. […] For CSF1R, NKL.1, CD4+ and CD8+ T cell depletion, 200 μg of antibodies were intraperitoneally injected 1 day before treatment initiation and then twice a week for 2 weeks. For PD-L1 blockade combination therapy in MC38 model, 6-thio-dG was given on day 10 and day 11, 50 μg PD-L1 was intraperitoneally injected on day 13 and 17. For PD-L1 blockade combination therapy in LLC model, 6-thio-dG was given on day 4, 5, 6, 10 and 11, 200 μg PD-L1 was intraperitoneally injected on day 8 and 13. Tumor volumes were measured by the length (a), width (b) and height (h) and calculated as tumor volume=abh/2.

In assay [2] the test system is MC38 tumor cells. The assay is described as follows: MC38 tumor growth and treatment in mice. As for the experimental part: Tumor growth and treatment. A total of 5×10^5 MC38, 5×10^5 CT26 or 1×10^6 LLC cells were inoculated subcutaneously into right dorsal flanks of the mice in 100 μL phosphate buffered saline (PBS). Tumor-bearing mice were randomly grouped into treatment groups when tumors grew to around 100 mm^3. For 6-thio-dG single treatment, 3 mg/kg 6-thio-dG was intraperitoneally given on days 7, 8 and 9 in MC38 tumor and LLC tumor and on days 5, 6, 7 for CT26 tumor. For CSF1R, NKL.1, CD4+ and CD8+ T cell depletion, 200 μg of antibodies were intraperitoneally injected 1 day before treatment initiation and then twice a week for 2 weeks. For PD-L1 blockade combination therapy in MC38 model, 6-thio-dG was given on day 10 and day 11, 50 μg PD-L1 was intraperitoneally injected on day 13 and 17. For PD-L1 blockade combination therapy in LLC model, 6-thio-dG was given on day 4, 5, 6, 10 and 11, 200 μg PD-L1 was intraperitoneally injected on day 8 and 13. Tumor volumes were measured by the length (a), width (b) and height (h) and calculated as tumor volume=abh/2.

Assay [3] deals with tumor-specific T cells. The assay is described as follows: IFN-γ ELISPOT of splenocytes / draining lymph node cells. The conditions noted are these: advanced MC38 tumors; stimulated with irradiated MC38 tumor cells. How it is done: IFN-γ enzyme-linked immunosorbent spot assay (ELISPOT). MC38 tumors were injected subcutaneously on the right flank of C57BL/6. For 6-thio-dG single treatment, 3 mg/kg 6-thio-dG was intraperitoneally given on days 7, 8 and 9; for PD-L1 blockade combination therapy in MC38 model, 3 mg/kg 6-thio-dG was given on day 10 and day 11, 50 μg PD-L1 was intraperitoneally injected on day 11. 7 days after last treatment, tumor draining lymphoid and spleen from tumor-bearing mice were collected and single-cell suspension was prepared. Irradiated MC38 tumor cells and control LLC tumor cells were used to re-stimulate the tumor-specific T cells. 1.5×10^5 draining lymph nodes cells or splenocytes and 7.5×10^4 irradiated tumor cells were co-cultured for 48 hrs, and ELISPOT assay was performed using the IFN-γ ELISPOT kit (BD Bioscience) according to the manufacturer's instructions. IFN-γ spots were enumerated with the CTL-ImmunoSpot® S6 Analyzer (Cellular Technology Limited).

As to “anti-PD-L1: fully humanized, engineered monoclonal antibody of IgG1 isotype against PD-L1 (Atezolizumab) [reference compound]”, in assay [1] (PD-L1 blockade resistant LLC model, 6-thio-dG 3 mg/kg days 4, 5, 6, 10, 11, 200 μg anti-PD-L1 days 8 and 13), the tumor burden result is reported as “no therapeutic effect”. Further, the “tumor growth (FIG. 8A)” value in assay [1] (lewis lung carcinoma, three days 6-thio-dG followed two days later with anti-PD-L1) is given as “same rapid tumor growth”. In assay [2] (LLC cured mice injected with MC38), the “MC38 tumors in LLC cured mice” value is recorded as “had no affect”. The “tumor volume / tumor growth in advanced tumors” value in assay [2] (tumor sizes 150-200 mm^3, 6-thio-dG 3 mg/kg days 10, 11, 50 μg anti-PD-L1 days 13 and 17) is given as “difficult to control”. Besides, in assay [3], the “tumor-specific T cell response in draining lymph nodes (IFN-γ production)” value is “little effect”.

The values are drawn from patent US12097213B2, “Sequential treatment of cancers using 6-thio-dG, checkpoint inhibitors and radiation therapy” (The Board of Regents of the University of Texas System, priority 2020, dated 2024).
